{
  "source": "paper PMC13130965",
  "about": "“An Integrated Approach Combining Regulatory Tests in tg(cyp19a1b:GFP) Zebrafish Embryos to Assess Toxicity, Developmental Effects, and Estrogenic Activity of Chemicals: A Case Study with Bisphenol A Substitutes” (Environmental Science & Technology, 2026)",
  "key": {"[1]": {"test_system": "Zebrafish embryos", "details": "cited from earlier work; for LC10(96h): ref Blanc et al. (2019)"}, "[2]": {"test_system": "tg(cyp19a1b:GFP) zebrafish embryos", "test": "Refined Fish Embryo Acute Toxicity test (FET, OECD TG 236): mortality", "assay_type": "in vivo, zebrafish (Danio rerio)", "details": "nominal, brackets 95% CI", "description": "(§1) Exposures were carried out in presaturated 24-well plates containing one embryo per well in 2 mL of test solution. The exposure was performed under semistatic conditions, with daily renewal of the test solution. The concentration ranges tested, along with a control with the same percentage of solvent alone, are recapitulated in Table S1. All exposure concentrations are reported as nominal. During the time course of the refined FET tests, embryos were observed after 8 h (coagulation), 24 h (lack of somite formation and nondetachment of the tail), and 48, 72, and 96 h of exposure (nondetection of the heartbeat). […] Moreover, hatching rate and nonlethal developmental effects (i.e., yolk deformity, growth retardation, spontaneous movement, edema, blood tail circulation, heart rate, pigmentation, head and tail/spinal malformations, and hemorrhage) were monitored daily. Tail/spinal malformations included lordosis, kyphosis, scoliosis, and reduced tail length.\n(§2) This analysis considered all nonlethal developmental end points monitored in the refined FET assay (see above), except effects on hatching, pigmentation, spontaneous movement, and blood circulation. A teratogenic index (TI) was then calculated as the ratio LC50/EC50.\nBaseline toxicity and experimental FET LC50 values were used to calculate toxic ratios (TR = predicted baseline toxicity LC50/experimental FET LC50). Compounds with TR < 10 were considered as baseline toxicants."}, "[3]": {"test_system": "tg(cyp19a1b:GFP) zebrafish embryos", "test": "Refined FET: developmental effects / malformations", "assay_type": "in vivo, zebrafish (Danio rerio)", "details": "nominal; at least 10% of embryos affected", "description": "as §1, §2"}, "[4]": {"test_system": "hERβ", "design": "method as in Grimaldi et al.", "details": "HELN-hERβ; ref Grimaldi et al.; cited from earlier work"}, "[5]": {"test_system": "hERβ", "design": "method as in Pelch et al.", "details": "HepG2-hERβ, ref Pelch et al., cited from earlier work"}, "[6]": {"test_system": "cyp19a1b:GFP (brain aromatase) in tg(cyp19a1b:GFP) zebrafish embryos", "test": "EASZY assay (OECD TG 250): GFP induction", "assay_type": "in vivo, zebrafish (Danio rerio)", "details": "Danio rerio, 96 h, read-out: EASZY relative EC50, nominal; 96 h", "description": "The tests were conducted according to OECD TG 250. Newly fertilized cyp19a1b-GFP eggs were transferred to glass crystallizing dishes and exposed for 96 h in a humidified climate chamber (27 ± 2 °C) under semistatic conditions with a total renewal of the test solutions each day. Each condition consisted of three crystallizing dishes, each containing 7 embryos and 15 mL of test medium. Embryos were exposed to a range of nonlethal concentrations of chemicals as determined previously based on the refined FET assays. The tested concentration ranges of bisphenols, along with a control with the same percentage of solvent alone, are summarized in Table S2. All exposure concentrations are reported as nominal. At the end of exposure, transgenic zebrafish embryos were collected for fluorescence imaging to quantify GFP intensity. At the end of the experiments, all living zebrafish embryos were euthanized as described above. […] ICI was added together with bisphenols from 0 to 4 dpf (days post fertilization). […] In all coexposure experiments, the final DMSO concentration was 0.02% (v/v).\nFor fluorescence imaging, GFP fold induction was expressed as mean ± SEM, and values were compared to the DMSO control using one-way ANOVA followed by Dunnett’s posthoc test. […]"}, "[7]": {"molecular_target": "zebrafish ERβ2 (zfERβ2) (Danio rerio, UniProt Q7ZU32)", "sequence (Q7ZU32 1-553)": "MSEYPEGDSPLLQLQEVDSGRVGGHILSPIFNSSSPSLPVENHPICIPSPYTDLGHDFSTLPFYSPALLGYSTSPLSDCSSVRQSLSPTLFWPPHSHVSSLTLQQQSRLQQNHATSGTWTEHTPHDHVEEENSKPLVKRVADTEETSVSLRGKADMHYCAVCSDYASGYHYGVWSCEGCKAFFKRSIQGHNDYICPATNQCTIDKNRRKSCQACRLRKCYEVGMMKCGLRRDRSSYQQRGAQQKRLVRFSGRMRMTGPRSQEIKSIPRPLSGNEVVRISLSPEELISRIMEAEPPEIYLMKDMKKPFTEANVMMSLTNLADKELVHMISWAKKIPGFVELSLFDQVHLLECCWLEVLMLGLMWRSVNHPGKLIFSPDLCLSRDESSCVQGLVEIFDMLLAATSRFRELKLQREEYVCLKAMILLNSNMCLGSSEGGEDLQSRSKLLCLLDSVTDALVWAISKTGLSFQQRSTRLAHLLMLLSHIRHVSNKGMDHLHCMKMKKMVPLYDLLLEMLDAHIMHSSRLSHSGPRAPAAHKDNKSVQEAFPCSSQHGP", "test": "ZELH-zfERβ2 luciferase reporter gene assay", "assay_type": "cell-based", "details": "read-out: maximal efficacy", "description": "The ZELH-zfERs reporter cell line was previously established after a two-step stable transfection of the zebrafish hepatic cell line ZFL with the luciferase gene under the control of ERE (yielding the ZELH cell line that expresses no functional ER) and the zebrafish ER subtype β2 (yielding the ZELH-zfERβ2 cell line). Cells were cultured, exposed to chemicals for 72 h, and measured for luciferase activity exactly as previously described. , For each chemical, serial dilutions were prepared in DMSO and tested in three independent experiments. The final DMSO concentration in the culture medium was always 0.1% v/v. All tested concentrations refer to nominal concentrations."}, "[8]": {"test_system": "cyp19a1b:GFP (brain aromatase) in tg(cyp19a1b:GFP) zebrafish embryos", "test": "Refined FET: GFP fluorescence imaging at 96 h", "assay_type": "in vivo, zebrafish (Danio rerio)", "details": "nominal", "description": "as §1, with “All the tests were conducted according to OECD TG 236, except for the temperature (27 ± 2 °C), which was aligned with the OECD TG 250 (see below). Exposures” for “Exposures”, “length. […] To do so, each embryo was photographed and analyzed as described by Brion et al. At the end of the refined FET assay, all living zebrafish embryos were euthanized using a protocol combining anesthesia induced by 168 mg/L tricaine (Pharmaq, delivered from Vetofish, Chateauneuf-les-Martigues, France) and the addition of bleach solution (sodium hypochlorite 6.15%; 1 volume of bleach to 5 volumes of water) to induce death.” for “length.”\nFor fluorescence imaging, GFP fold induction was expressed as mean ± SEM, and values were compared to the DMSO control using one-way ANOVA followed by Dunnett’s posthoc test."}, "[9]": {"details": "120h-exposure, ref Qiu et al. (2021)"}, "[10]": {"details": "zebrafish embryos, ref Ren et al. (2017)"}},
  "note": "Read-outs that look alike come from different tables or passages of the source.",
  "data": [
    {"smiles": "Nc1ccc(Cl)c(Cl)c1", "note": "[3,4-DCA, reference compound]", "values": [
      {"measurement": "mean LC50 of FET positive control", "setting": "[1]; ref OECD TG 236 validation report", "result": 2.7, "unit": "mg/L"},
      {"measurement": "LC50 (96h) experimental (FET test)", "setting": "[2]", "result": 2.46, "unit": "mg/L"}
    ]},
    {"smiles": "O=S(=O)(c1ccc(O)cc1)c1ccc(O)cc1", "note": "[BPS, 4-(4-hydroxyphenyl)sulfonylphenol]", "values": [
      {"measurement": "LOEC deformity of yolk", "setting": "[3]", "result": 400, "unit": "mg/L"},
      {"measurement": "EC50", "setting": "[4]", "result": 1720, "unit": "nM"},
      {"measurement": "maximal efficacy", "setting": "[4]", "result": 100, "unit": "%"},
      {"measurement": "EC50", "setting": "[5]; NA = not active", "result": 2100, "unit": "nM"},
      {"measurement": "maximal efficacy", "setting": "[5]", "result": 77, "unit": "%"},
      {"measurement": "EC50", "setting": "[6]", "result": 62.7, "unit": "µg/mL"},
      {"measurement": "LC10(96h)", "setting": "[1]; 4-days exposure", "result": "> 100", "unit": "mg/L"},
      {"measurement": "Hatching success EC50(72h)", "setting": "[1]; 4-days exposure, ref Moreman et al. (2017)", "result": "155 (15) mg/L"},
      {"measurement": "LOEC (body length, GnRH3 neurons, reproductive neuroendocrine-related genes and hormones)", "setting": "[1]; [9]", "result": 100, "unit": "µg/L"},
      {"measurement": "NOEC (body length, GnRH3 neurons, reproductive neuroendocrine-related genes and hormones)", "setting": "[1]; [9]", "result": 1, "unit": "µg/L"},
      {"measurement": "LC10(96h)", "setting": "[1]", "result": "> 400", "unit": "µM"},
      {"measurement": "Body length LOEC", "setting": "[1]; [10]", "result": 350, "unit": "mg/L"},
      {"measurement": "Body length NOEC", "setting": "[1]; [10]", "result": 300, "unit": "mg/L"},
      {"measurement": "Hatching rate EC50(120h)", "setting": "[1]; [10]", "result": 200, "unit": "mg/L"},
      {"measurement": "Heart rate EC50(78h)", "setting": "[1]; [10]", "result": 318, "unit": "mg/L"},
      {"measurement": "Emax", "setting": "[7]", "result": 85, "unit": "%"},
      {"measurement": "EC50", "setting": "[8]; Danio rerio, Hill model, read-out: EC50 GFP induction in refined FET", "result": 35.7, "unit": "µg/mL"},
      {"measurement": "EC10 GFP induction in refined FET", "setting": "[8]", "result": 16.6, "unit": "mg/L"},
      {"measurement": "EC20 GFP induction in refined FET", "setting": "[8]", "result": 22.0, "unit": "mg/L"}
    ]}
  ]
}
